Assays:
Assay in all cases: microbe, parasite or virus in culture
[1] = system: pseudotyped VSV G particles (VSVpp) in Huh7-high CD81 cells; format: cell-based, vesicular stomatitis virus; settings: Vesicular stomatitis virus, 72 h, read-out: VSVpp (EC50, μM)
[2] = system: Pseudotyped HCV GT1a particles (HCVpp), entry into Huh7-high CD81 cells; format: cell-based, HCV GT1a H77 strain; settings: Hepatitis C virus, 72 h, read-out: HCVpp GT-1a (EC50, μM)
[3] = system: Pseudotyped HCV GT1b particles (HCVpp), entry into Huh7-high CD81 cells; format: cell-based, HCV GT1b Con1 strain; settings: Hepatitis C virus, GT1B, 72 h, read-out: HCVpp GT-1b (EC50, μM)

Row | Compound | EC50 [1] [µM] | EC50 [2] [µM] | EC50 [3] [µM]
1 | CN(C)S(=O)(=O)c1ccc(-c2c(Cl)cc(Nc3n[nH]c(N)n3)cc2C(F)(F)F)cc1 [Compound 185, 4′-(5-amino-1H-1,2,4-triazol-3-ylamino)-2′-chloro-N,N-dimethyl-6′-(trifluoromethyl)biphenyl-4-sulfonamide] | 11.7 | 0.015 | 0.052
2 | CS(=O)(=O)NCc1ccc(-c2c(Cl)cc(Nc3n[nH]c(N)n3)cc2C(F)(F)F)cc1 [Compound 186, N-((4′-(5-amino-1H-1,2,4-triazol-3-ylamino)-2′-chloro-6′-(trifluoromethyl)biphenyl-4-yl)methyl)methanesulfonamide] | 19.7 | 0.011 | 0.038
3 | CS(=O)(=O)c1ccc(-c2c(Cl)cc(Nc3n[nH]c(N)n3)cc2C(F)(F)F)cc1 [Compound 187, N3-(2-chloro-4′-(methylsulfonyl)-6-(trifluoromethyl)biphenyl-4-yl)-1H-1,2,4-triazole-3,5-diamine] | 1.58 | 0.016 | 0.046
4 | COc1ccc(-c2c(Cl)cc(Nc3n[nH]c(N)n3)cc2C(F)(F)F)cc1S(=O)(=O)NC(C)(C)CO [Compound 218, 4′-(5-Amino-1H-[1,2,4]triazol-3-ylamino)-6′-chloro-4-methoxy-2′-trifluoromethyl-biphenyl-3-sulfonic acid (2-hydroxy-1,1-dimethyl-ethyl)-amide] | 20.3 | 0.003 | 0.005
5 | Nc1nc(Nc2cc(Cl)c(-c3ccc(NC(=O)CN4CCS(=O)(=O)CC4)cc3)c(C(F)(F)F)c2)n[nH]1 [Compound 240] | > 10 | 0.011 | 0.171
6 | CS(=O)(=O)Nc1ccc(-c2c(F)cc(Nc3nc(N)n[nH]3)cc2C(F)(F)F)cc1 [Compound 242, N-[4′-(5-Amino-2H-[1,2,4]-triazol-3-ylamino)-6′-fluoro-2′-trifluoromethyl-biphenyl-4-yl]-methanesulfonamide] | > 10 | 0.061 | 0.113
7 | Nc1nc(Nc2cc(Cl)c(-c3ccc4c(c3)CC(=O)N4)c(Cl)c2)n[nH]1 [Compound 254] | 12.9 | 0.003 | 0.051
8 | Nc1nc(Nc2cc(Cl)c(-c3ccc(OC[C@@H]4CCCN4)cc3)c(Cl)c2)n[nH]1 [Compound 265, N*3*-[2,6-Dichloro-4′-((S)-1-pyrrolidin-2-ylmethoxy)-biphenyl-4-yl]-1H-[1,2,4]triazole-3,5-diamine] | 17.9 | 0.005 | 0.063
9 | Nc1nc(Nc2cc(Cl)c(-c3ccc(F)cc3)c(Cl)c2)n[nH]1 [Compound 286, N3-(2,6-dichloro-4′-fluorobiphenyl-4-yl)-1H-1,2,4-triazole-3,5-diamine] | 13.6 | 0.018 | 0.64
10 | Nc1nc(Nc2cc(Cl)c(-c3ccccc3F)c(Cl)c2)n[nH]1 [Compound 287, N3-(2,6-dichloro-2′-fluorobiphenyl-4-yl)-1H-1,2,4-triazole-3,5-diamine] | 13 | 0.005 | 0.366
11 | Nc1nc(Nc2cc(Cl)c(-c3ccc(N4CCCS4(=O)=O)cc3)c(Cl)c2)n[nH]1 [Compound 289, N-3-[2,6-Dichloro-4′-(1,1-dioxo-1,6-isothiazolidin-2-yl)-biphenyl-4-yl]-1H-[1,2,4]triazole-3,5-diamine] | 17.8 | 0.002 | 0.046

Reference: patent US9693997B2, “Antiviral compounds” (priority 2013, dated 2017)
